From PMC2820250 (Journal of the American Chemical Society, 2009)
Counter-ions that a name gives are not always drawn.

Molecular target: recombinant human BACE-1 (Homo sapiens, UniProt P56817)
Assay: BACE-1 FRET peptide cleavage assay
Assay type: biochemical
Conditions: for IC50, inhibition of cleavage of FRET peptide by BACE-1: FRET peptide with Swedish variant, pH 4.5, 2 h, 25 °C, triplicate; for inhibitory activity against BACE-1 cleavage of FRET peptide, in words: qualitative statement

Sequence of recombinant human BACE-1 (P56817 46-501): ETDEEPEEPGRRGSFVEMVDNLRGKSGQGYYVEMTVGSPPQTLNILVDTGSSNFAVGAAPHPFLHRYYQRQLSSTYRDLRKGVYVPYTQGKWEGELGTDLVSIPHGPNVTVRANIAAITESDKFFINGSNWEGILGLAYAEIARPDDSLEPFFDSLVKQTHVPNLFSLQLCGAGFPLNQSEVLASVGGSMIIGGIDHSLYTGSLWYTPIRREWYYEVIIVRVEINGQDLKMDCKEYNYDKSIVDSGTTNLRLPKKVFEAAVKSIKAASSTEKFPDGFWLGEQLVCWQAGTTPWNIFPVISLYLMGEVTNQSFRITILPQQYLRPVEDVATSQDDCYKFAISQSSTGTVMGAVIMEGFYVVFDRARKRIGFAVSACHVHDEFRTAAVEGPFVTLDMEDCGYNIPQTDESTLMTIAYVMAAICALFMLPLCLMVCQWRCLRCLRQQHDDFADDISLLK

With “5-Aminopentyl [(β-D-glucopyranosyluronate)-(1→4)-O-(2-deoxy-2-sulfamino-6-O-sulfonate-α-D-glucopyranoside)-(1→4)-O-(2-O-sulfonate-α-L-idopyranosyluronate)-(1→4)-2-deoxy-2-sulfoamino-6-O-sulfonate-α-D-glucopyranoside heptasodium salt [Compound 86]” as the molecule, how does the “IC50, inhibition of cleavage of FRET peptide by BACE-1” value (“IC50, inhibition” for short) read?
Its value is greater than 300 µg/ml.

With `NCCCCCO[C@H]1O[C@H](COS(=O)(=O)[O-])[C@@H](O[C@@H]2O[C@@H](C(=O)[O-])[C@@H](O[C@H]3O[C@H](COS(=O)(=O)[O-])[C@@H](O[C@@H]4O[C@@H](C(=O)[O-])[C@@H](O)[C@H](O)[C@H]4O)[C@H](O)[C@H]3NS(=O)(=O)[O-])[C@H](O)[C@H]2O)[C@H](O)[C@H]1NS(=O)(=O)[O-].[Na+].[Na+].[Na+].[Na+].[Na+].[Na+]` [Compound 83] as the molecule, how does the “IC50, inhibition” value read?
The value was 4.6 µg/ml.

What about the “inhibitory activity against BACE-1 cleavage of FRET peptide, in words” value (“inhibitory activity” for short) of the same molecule?
Its value is “relatively high potency”.

How did the “IC50, inhibition” value turn out when `CC(=O)N[C@H]1[C@@H](O[C@H]2[C@H](O)[C@@H](O)[C@H](O[C@H]3[C@H](O)[C@@H](NC(C)=O)[C@@H](OCCCCCN)O[C@@H]3COS(=O)(=O)[O-])O[C@H]2C(=O)[O-])O[C@H](COS(=O)(=O)[O-])[C@@H](O[C@@H]2O[C@H](C(=O)[O-])[C@@H](O)[C@H](O)[C@H]2O)[C@@H]1O.[Na+].[Na+].[Na+].[Na+]` [Compound 78] was run?
Its value is greater than 300 µg/ml.

For “5-Aminopentyl [(β-D-glucopyranosyluronate)-(1→4)-O-(2-acetamido-2-deoxy-6-O-sulfonato- α-D-glucopyranoside)-(1→4)-O-(2-O-sulfonato-α-L-idopyranosyluronate)]-(1→4)-2-deoxy-2-acetamido-6-O-sulfonate-α-D-glucopyranoside penta sodium salt [Compound 85]”, which “IC50, inhibition” value is on record?
Its value is 167 µg/ml.

For `NCCCCCO[C@H]1O[C@H](COS(=O)(=O)[O-])[C@@H](O[C@@H]2O[C@H](C(=O)[O-])[C@@H](O[C@H]3O[C@H](COS(=O)(=O)[O-])[C@@H](O[C@@H]4O[C@H](C(=O)[O-])[C@@H](O)[C@H](O)[C@H]4O)[C@H](O)[C@H]3NS(=O)(=O)[O-])[C@H](O)[C@H]2O)[C@H](O)[C@H]1NS(=O)(=O)[O-].[Na+].[Na+].[Na+].[Na+].[Na+].[Na+]` [Compound 77], which “IC50, inhibition” value is on record?
The value was 97 µg/ml.

What about the “inhibitory activity” value of the same molecule?
The value was “modest activity”.

`NCCCCCOC1OC(COS(=O)(=O)O)C(OC2OC(C(=O)O)C(OC3OC(COS(=O)(=O)O)C(OC4OC(C(=O)O)C(OC5OC(COS(=O)(=O)O)C(OC6OC(C(=O)O)C(O)C(O)C6O)C(O)C5NS(=O)(=O)O)C(O)C4O)C(O)C3NS(=O)(=O)O)C(O)C2O)C(O)C1NS(=O)(=O)O` [Compound 69, 5-aminopentyl [(β-D-glucopyranosyluronate)-(1→4)-(2-deoxy-2-sulfoamino-6-O-sulfonato-α-D-glucopyranoside)-(1→4)-O-(α-L-idopyranosyluronate)-(1→4)-O-(2-deoxy-2-sulfoamino-6-O-sulfanate-α-D-glucopyranoside)-(1→4)-(β-D-glucopyranosyluronate)]-(1→4)-O-2-deoxy-N-sulfoamino-6-O-sulfonate-α-D-glucopyranoside nonasodium salt] was tested. Which “IC50, inhibition” value did it give?
The value was 64 µg/ml.

How did the “IC50, inhibition” value turn out when “5-Aminopentyl [(α-L-idopyranosyluronate)-(1→4)-O-(2-acetamido-2-deoxy-6-O-sulfonate-α-D-glucopyranoside)-(1→4)-O-(2-O-sulfonato-α-L-idopyranosyl-uronate)]-(1→4)-2-deoxy-2-acetamido-6-O-sulfonate-α-D-glucopyranoside penta sodium salt [Compound 84]” was run?
Its value is greater than 300 µg/ml.

How did the “IC50, inhibition” value turn out when `NCCCCCO[C@H]1O[C@H](COS(=O)(=O)[O-])[C@@H](O[C@@H]2O[C@@H](C(=O)[O-])[C@@H](O[C@H]3O[C@H](COS(=O)(=O)[O-])[C@@H](O[C@@H]4O[C@H](C(=O)[O-])[C@@H](O)[C@H](O)[C@H]4O)[C@H](O)[C@H]3NS(=O)(=O)[O-])[C@H](O)[C@H]2O)[C@H](O)[C@H]1NS(=O)(=O)[O-].[Na+].[Na+].[Na+].[Na+].[Na+].[Na+]` [Compound 79] was run?
Its value is 240 µg/ml.

For `CC(=O)N[C@H]1[C@@H](O[C@H]2[C@H](O)[C@@H](O)[C@H](O[C@H]3[C@H](O)[C@@H](NC(C)=O)[C@@H](OCCCCCN)O[C@@H]3COS(=O)(=O)[O-])O[C@@H]2C(=O)[O-])O[C@H](COS(=O)(=O)[O-])[C@@H](O[C@@H]2O[C@H](C(=O)[O-])[C@@H](O)[C@H](O)[C@H]2O)[C@@H]1O.[Na+].[Na+].[Na+].[Na+]` [Compound 76], which “IC50, inhibition” value is on record?
Its value is 39 µg/ml.

What about the “inhibitory activity” value of the same molecule?
The value was “modest activity”.

With `NCCCCCO[C@H]1O[C@H](COS(=O)(=O)[O-])[C@@H](O[C@@H]2O[C@H](C(=O)[O-])[C@@H](O[C@H]3O[C@H](COS(=O)(=O)[O-])[C@@H](O[C@@H]4O[C@@H](C(=O)[O-])[C@@H](O)[C@H](O)[C@H]4O)[C@H](O)[C@H]3NS(=O)(=O)[O-])[C@H](O)[C@H]2O)[C@H](O)[C@H]1NS(=O)(=O)[O-].[Na+].[Na+].[Na+].[Na+].[Na+].[Na+]` [Compound 81, 5-aminopentyl [(L-α-idopyranosyluronate)-(1→4)-O-(2-deoxy-2-sulfoamino-6-O-sulfonate-α-D-glucopyranoside)-(1→4)-O-(β-D-glucopyranosyluronate)]-(1→4)-2-deoxy-2-sulfoamino-6-O-sulfonate-α-D-glucopyranoside hexasodium salt] as the molecule, how does the “IC50, inhibition” value read?
Its value is 290 µg/ml.

Which results are given for `CC(=O)N[C@H]1[C@@H](O[C@H]2[C@H](O)[C@@H](O)[C@H](O[C@H]3[C@H](O)[C@@H](NC(C)=O)[C@@H](OCCCCCN)O[C@@H]3COS(=O)(=O)[O-])O[C@H]2C(=O)[O-])O[C@H](COS(=O)(=O)[O-])[C@@H](O[C@@H]2O[C@@H](C(=O)[O-])[C@@H](O)[C@H](O)[C@H]2O)[C@@H]1O.[Na+].[Na+].[Na+].[Na+]` [Compound 82]?
IC50, inhibition of cleavage of FRET peptide by BACE-1: 35 µg/ml; reduction of potency relative to compound 83 (acetamido moieties instead of N-sulfates): 10 fold; inhibitory activity against BACE-1 cleavage of FRET peptide, in words: modest activity

With `CC(=O)N[C@H]1[C@@H](O[C@H]2[C@H](O)[C@@H](O)[C@H](O[C@H]3[C@H](O)[C@@H](NC(C)=O)[C@@H](OCCCCCN)O[C@@H]3COS(=O)(=O)[O-])O[C@@H]2C(=O)[O-])O[C@H](COS(=O)(=O)[O-])[C@@H](O[C@@H]2O[C@@H](C(=O)[O-])[C@@H](O)[C@H](O)[C@H]2O)[C@@H]1O.[Na+].[Na+].[Na+].[Na+]` [Compound 80] as the molecule, how does the “IC50, inhibition” value read?
The value was 104 µg/ml.
